Assay results taken from US11998602B2, “Methods for promoting myelination and for treating demyelinating diseases” (The Scripps Research Institute, priority 2018, dated 2024).

Legend:
OPCs = assay: Caspase-Glo 3/7 and Cell Titer Glo assays of apoptosis and survival during differentiation; assay type: cell-based, rat
Experimental: Detection of caspase 3/7. In poly-D-lysine-coated white 96-well plates (Greiner), cells were seeded at 5,000 cells per well. Taurine (20 mM) was added on days 0 or 3, alone and in combination with benztropine (0.5 μM), miconazole (2 μM), T3 (1 μM) or Staurosporine (1 μM) added on day 0. The Caspase-Glo 3/7 Assay (Promega) was utilized to quantify caspase-3/7 activity 6, 24 and 48 h after drug and taurine addition on day 0. Caspase-3/7 activity was also measured 24, 48 and 72 h (days 4, 5 and 6) after taurine addition on day 3.

[1] = system: Rat primary optic nerve OPCs; assay: High content imaging assay of OPC differentiation (MBP, A2B5, DAPI cell counts); assay type: cell-based
Experimental: Rat primary optic nerve OPCs were isolated by panning (>99% A2B5^+) and cultured in poly-D-lysine (10 μg/ml)-coated TC dishes in OPC culture media (Neurobasal Media, Invitrogen) supplemented with B27-without vitamin A (Invitrogen), 1× non-essential amino acids, 1× Glutamax, 1× anti-anti, β-mercaptoethanol and PDGF-AA (50 ng/ml; Peprotech) at 37° C. with 5% CO2. The culture medium was replaced every 48 h and cells were collected before the confluency reached 60% to maintain a naive state. For differentiation, OPCs were plated at 1 million cells in one 10 cm petri-dish filled with differentiation media, which is identical to the culture media, but with PDGF-AA at 2 ng/ml. T3 and DMSO were used as the positive control and negative control, respectively. Five replicates of cells were collected at different times (0, 3, and 6 days) for metabolomics studies. High content imaging. For dose-response co-treatment experiments, black, clear-bottom 384-well plates (Greiner) were coated with poly-D-lysine (10 μg ml^−1 in PBS). miconazole and benztropine were added at 8 doses in differentiation media; 3-fold dilutions down from 10 μM. taurine was then added at 8 concentrations; 3-fold dilutions down from 20 mM. This 384-well format was also utilized for experiments combining benztropine (0.5 μM), miconazole (2 μM) or T3 (1 μM) with propargylglycine (0.1, 3, 10, 30 μM), reduced glutathione (1, 10, 30, 100 μM) or ascorbic acid ([…]). OPCs were then seeded at a density of 1,000 cells per well, and the plates were incubated at 37° C. with 5% CO2 for 6 days. For time course experiments, cells were seeded at a density of 5,000 cells per well in poly-D-lysine-coated 96-well plates. Cells were treated with DMSO (0.1%), benztropine (0.5 μM), miconazole (2 μM) or T3 (1 μM) on day 0, and taurine (20 mM) was added in combination at 0, 1 or 3 days post-drug treatment. The plates were incubated at 37° C. with 5% CO2 for 6 days. On day 6, cells were then fixed for 20 min with 4% formaldehyde solution and stained with mouse anti-Myelin Basic Protein (MBP) antibody (MAB382, Millipore) or anti-A2B5 antibody (MAB312, Millipore) in 3% BSA, 0.3% Triton X-100 with overnight incubation at 4° C. The cells were washed and incubated with secondary antibody (goat anti-mouse Alexa Fluor488) and DAPI (Invitrogen) for 1 h at room temperature. The cells were washed and plates were sealed and imaged using an Opera confocal imaging reader (Perkin Elmer) or a Cellomics Cell Insight imaging reader (Thermo). An air ×10 lens was used to capture 9 images per well at both wavelengths (488 and 365 nm), with each image representing a different unique locations field in a single well. For image analysis, DAPI-stained nuclei and MBP-positive or A2B5-positive cell bodies were detected using an algorithm that selects for positive cell bodies and nuclei within a range of fluorescent emission values and sizes as determined by fitting parameters to positive (T3, 1 μM) and negative controls (DMSO, 0.1%). The numbers of DAPI-positive objects were enumerated in experiments where cell counts were required. Numerical results from the analyzed images were later exported for analysis using Excel (Microsoft) and/or Genedata software.

[2] = system: Rat primary optic nerve OPCs; assay: In vitro OPC differentiation assay, MBP expression by Western blot; assay type: cell-based
Experimental: Rat primary optic nerve OPCs were isolated by panning (>99% A2B5^+) and cultured in poly-D-lysine (10 μg/ml)-coated TC dishes in OPC culture media (Neurobasal Media, Invitrogen) supplemented with B27-without vitamin A (Invitrogen), 1× non-essential amino acids, 1× Glutamax, 1× anti-anti, β-mercaptoethanol and PDGF-AA (50 ng/ml; Peprotech) at 37° C. with 5% CO2. The culture medium was replaced every 48 h and cells were collected before the confluency reached 60% to maintain a naive state. For differentiation, OPCs were plated at 1 million cells in one 10 cm petri-dish filled with differentiation media, which is identical to the culture media, but with PDGF-AA at 2 ng/ml. T3 and DMSO were used as the positive control and negative control, respectively. Five replicates of cells were collected at different times (0, 3, and 6 days) for metabolomics studies.
Western blot analysis. OPCs were plated in basal differentiation medium at 1.7×10^5 cells/well and treated for 6 days with benztropine (0.5 μM), miconazole (2 μM) with and without the tested endogenous metabolites, T3 (1 μM) or DMSO. After washing with PBS, cells were collected in ice cold RIPA buffer containing protease and phosphatase inhibitors. Following incubation on ice for >20 min and sonication, lysed cells were centrifuged (16,000 g, 15 min at 4° C.). Total protein was quantified using a BCA analysis and 25 μg of protein from each sample was denatured by boiling with Bolt LDS Sample Buffer (4×) and Sample Reducing Agent (10×). Proteins were electrophoresed using Bolt 4-12% Bis-Tris gels (Life Technologies) and transferred to a PVDF membrane (Bio-Rad). The membrane was blocked with Odyssey PBS Blocking Buffer (LI-COR) and incubated overnight at 4° C. with anti-MBP (mouse, 1:2000) and anti-actin (mouse, 1:5000). Blots were incubated with […] secondary donkey anti-mouse antibody (LI-COR, 1:7500) and imaged using Odyssey CLx and Image Studio (LI-COR).

Question: How did the “Apoptosis in OPCs treated with staurosporine” value (OPCs; 20 mM taurine with 1 μM staurosporine (apoptosis inducer)) turn out when `NCCS(=O)(=O)O` [taurine, 2-aminoethanesulfonic acid] was run?
Answer: significantly inhibit

Question: And the “Caspase 3/7 activation” value (OPCs; 24 hours after taurine addition at day 0 or day 3, 1 μM T3, 0.5 μM benztropine or 2 μM miconazole)?
Answer: decrease

Question: And the “Apoptosis or survival under basal differentiation conditions” value (OPCs; DMSO vehicle)?
Answer: not found to impact

Question: And the “Enhancement of overall cell number compared to drug treatment alone” value ([1]; >2 mM taurine with miconazole or benztropine, 6 days)?
Answer: over 20%

Question: What about the “Days of taurine addition with the most significant impact on MBP expression” value ([1]; dosing initiated at days 0 to 5, evaluated at day 6) of the same compound?
Answer: between days 1 and 3

Question: What about the “Impact on MBP expression of taurine addition on day 0 compared with days 1 to 3” value ([1]; evaluated at day 6) of the same compound?
Answer: significantly less efficacious

Question: And the “Impact on number of residual immature A2B5+ OPCs” value ([1]; taurine added on day 0, 1 or 3 to basal or drug-induced conditions, read at day 3 or day 6)?
Answer: minimal, albeit statistically significant, impact

Question: And the “MBP induction (Western blot), increase compared to benztropine-induced differentiation in the absence of taurine” value ([2]; 2 mM taurine added to benztropine (0.5 μM), 6 days)?
Answer: 2.0 fold

Question: What about the “MBP induction (Western blot), increase compared to miconazole-induced differentiation in the absence of taurine” value ([2]; 2 mM taurine added to miconazole (2 μM), 6 days) of the same compound?
Answer: 2.3 fold

Question: And the “Efficacy of induced OPC differentiation” value ([2]; added to benztropine- or miconazole-containing media)?
Answer: dramatically increase
